Laboratory results taken from patent publication US8664265B2, “Stable dosage forms of spiro and dispiro 1,2,4-trioxolane antimalarials” (Ranbaxy Laboratories Limited, priority 2005, dated 2014).

Columns and labels:
[1] = Water content by Karl Fischer method in the compatibility studies; type: physicochemical
Experimental: (§1) The role of excipients and water content was evaluated by conducting compatibility studies of active compound with various excipients, in different proportions and evaluating the extent of degradation by forced degradation at 60° C. over the period of 2 weeks and at 50° C. for 4 weeks. The water content was analyzed using Karl Fischer method and the total related substances (% w/w) were determined by HPLC method.

[2] = Compatibility studies of active compound with excipients, forced degradation, total related substances by HPLC; type: physicochemical
Experimental: as §1

[3] = with Aerosol, Drug:Excipient 1:0.1
[4] = with Croscarmellose sodium, Drug:Excipient 1:0.5
[5] = with Cross povidone, Drug:Excipient 1:0.5
[6] = with Dicalcium phosphate, Drug:Excipient 1:2^
[7] = with Dicalcium phosphate, Drug:Excipient 1:10
[8] = with Hydroxypropyl methylcellulose 5 cps, Drug:Excipient 1:0.5
[9] = with Mg. Stearate, Drug:Excipient 1:0.1
[10] = with Micro crystalline cellulose, Drug:Excipient 1:10
[11] = with Microcrystalline cellulose, Drug:Excipient 1:2^
[12] = with Opadry ®, Drug:Excipient 1:0.5
[13] = with Pearlitol, Drug:Excipient 1:2^
[14] = with Pearlitol, Drug:Excipient 1:10
[15] = with Polyethylene glycol 400, Drug:Excipient 1:0.1
[16] = with Polyvinyl pyrrolidone K 30, Drug:Excipient 1:0.5
[17] = with Sodium lauryl sodium, Drug:Excipient 1:0.5
[18] = with Sodium starch glycolate, Drug:Excipient 1:0.5
[19] = with Starch, Drug:Excipient 1:2^
[20] = with Talc, Drug:Excipient 1:0.1
[21] = with Titanium dioxide, Drug:Excipient 1:0.5
[22] = with Starch, Drug:Excipient 1:10

CC(C)(N)CNC(=O)C[C@H]1CC[C@]2(CC1)OOC1(O2)C2CC3CC(C2)CC1C3.O=C(O)/C=C\C(=O)O (stereo partly drawn) [Active compound I, cis-adamantane-2-spiro-3′-8′-[[[(2′-amino-2′-methylpropyl)amino]carbonyl]-methyl]-1′,2′,4′-trioxaspiro[4.5]decane hydrogen maleate]
Water (% w/w) [1, 3]: 0.27 % w/w
Water (% w/w) [1, 4]: 0.59 % w/w
Water (% w/w) [1, 5]: 3.49 % w/w
Water (% w/w) [1, 6]: 2.01 % w/w
Water (% w/w) [1, 7]: 2.14 % w/w
Water (% w/w) [1, 8]: 1.22 % w/w
Water (% w/w) [1, 9]: 0.46 % w/w
Water (% w/w) [1, 10]: 4.94 % w/w
Water (% w/w) [1, 11]: 3.69 % w/w
Water (% w/w) [1, 12]: 0.46 % w/w
Water (% w/w) [1, 13]: 0.02 % w/w
Water (% w/w) [1, 14]: 0.52 % w/w
Water (% w/w) [1, 15]: 0.88 % w/w
Water (% w/w) [1, 16]: 3.02 % w/w
Water (% w/w) [1, 17]: 0.79 % w/w
Water (% w/w) [1, 18]: 1.43 % w/w
Water (% w/w) [1, 19]: 4.73 % w/w
Water (% w/w) [1, 20]: 0.12 % w/w
Water (% w/w) [1, 21]: 0.18 % w/w
Compatibility with excipient ([2]; Microcrystalline cellulose): most satisfactory results
Compatibility with excipient ([2]; Starch, when used in higher amounts): incompatible
Compatibility with excipient ([2]; dicalcium phosphate, at 60° C.): increase in related substances
Compatibility with excipient ([2]; lactose, degradation by other mechanisms such as Maillard reaction): incompatible
Total Related Substance (% w/w) After 2 weeks/60° C. [2, 3]: 0.86 % w/w
Total Related Substance (% w/w) After 4 weeks/50° C. [2, 3]: 0.66 % w/w
Total Related Substance (% w/w) Initial [2, 3]: 0.14 % w/w
Total Related Substance (% w/w) After 2 weeks/60° C. [2, 4]: 0.35 % w/w
Total Related Substance (% w/w) After 4 weeks/50° C. [2, 4]: 0.34 % w/w
Total Related Substance (% w/w) Initial [2, 4]: 0.09 % w/w
Total Related Substance (% w/w) After 2 weeks/60° C. [2, 5]: 0.68 % w/w
Total Related Substance (% w/w) After 4 weeks/50° C. [2, 5]: 0.40 % w/w
Total Related Substance (% w/w) Initial [2, 5]: 0.13 % w/w
Total Related Substance (% w/w) After 2 weeks/60° C. [2, 6]: 1.32 % w/w
Total Related Substance (% w/w) After 4 weeks/50° C. [2, 6]: 0.77 % w/w
Total Related Substance (% w/w) Initial [2, 6]: 0.07 % w/w
Total Related Substance (% w/w) After 2 weeks/60° C. [2, 7]: 6.07 % w/w
Total Related Substance (% w/w) After 4 weeks/50° C. [2, 7]: 0.61 % w/w
Total Related Substance (% w/w) Initial [2, 7]: 0.17 % w/w
Total Related Substance (% w/w) After 2 weeks/60° C. [2, 8]: 1.05 % w/w
Total Related Substance (% w/w) After 4 weeks/50° C. [2, 8]: 0.70 % w/w
Total Related Substance (% w/w) Initial [2, 8]: 0.17 % w/w
Total Related Substance (% w/w) After 2 weeks/60° C. [2, 9]: 0.86 % w/w
Total Related Substance (% w/w) After 4 weeks/50° C. [2, 9]: 0.65 % w/w
Total Related Substance (% w/w) Initial [2, 9]: 0.13 % w/w
Total Related Substance (% w/w) After 2 weeks/60° C. [2, 10]: 1.02 % w/w
Total Related Substance (% w/w) After 4 weeks/50° C. [2, 10]: 0.78 % w/w
Total Related Substance (% w/w) Initial [2, 10]: 0.39 % w/w
Total Related Substance (% w/w) After 2 weeks/60° C. [2, 11]: 0.74 % w/w
Total Related Substance (% w/w) After 4 weeks/50° C. [2, 11]: 0.70 % w/w
Total Related Substance (% w/w) Initial [2, 11]: 0.19 % w/w
Total Related Substance (% w/w) After 2 weeks/60° C. [2, 12]: 0.96 % w/w
Total Related Substance (% w/w) After 4 weeks/50° C. [2, 12]: 1.85 % w/w
Total Related Substance (% w/w) Initial [2, 12]: 0.17 % w/w
Total Related Substance (% w/w) After 2 weeks/60° C. [2, 13]: 0.77 % w/w
Total Related Substance (% w/w) After 4 weeks/50° C. [2, 13]: 0.72 % w/w
Total Related Substance (% w/w) Initial [2, 13]: 0.14 % w/w
Total Related Substance (% w/w) After 2 weeks/60° C. [2, 14]: 0.70 % w/w
Total Related Substance (% w/w) After 4 weeks/50° C. [2, 14]: 0.46 % w/w
Total Related Substance (% w/w) Initial [2, 14]: 0.14 % w/w
Total Related Substance (% w/w) After 2 weeks/60° C. [2, 15]: 0.68 % w/w
Total Related Substance (% w/w) After 4 weeks/50° C. [2, 15]: 0.66 % w/w
Total Related Substance (% w/w) Initial [2, 15]: 0.14 % w/w
Total Related Substance (% w/w) After 2 weeks/60° C. [2, 16]: 0.79 % w/w
Total Related Substance (% w/w) After 4 weeks/50° C. [2, 16]: 0.33 % w/w
Total Related Substance (% w/w) Initial [2, 16]: 0.00 % w/w
Total Related Substance (% w/w) After 2 weeks/60° C. [2, 17]: 1.59 % w/w
Total Related Substance (% w/w) After 4 weeks/50° C. [2, 17]: 0.92 % w/w
Total Related Substance (% w/w) Initial [2, 17]: 0.15 % w/w
Total Related Substance (% w/w) After 2 weeks/60° C. [2, 18]: 0.89 % w/w
Total Related Substance (% w/w) After 4 weeks/50° C. [2, 18]: 0.43 % w/w
Total Related Substance (% w/w) Initial [2, 18]: 0.13 % w/w
Total Related Substance (% w/w) After 2 weeks/60° C. [2, 19]: 0.74 % w/w
Total Related Substance (% w/w) After 4 weeks/50° C. [2, 19]: 0.60 % w/w
Total Related Substance (% w/w) Initial [2, 19]: 0.08 % w/w
Total Related Substance (% w/w) After 2 weeks/60° C. [2, 22]: 4.13 % w/w
Total Related Substance (% w/w) After 4 weeks/50° C. [2, 22]: 0.60 % w/w
Total Related Substance (% w/w) Initial [2, 22]: 0.07 % w/w
Total Related Substance (% w/w) After 2 weeks/60° C. [2, 20]: 0.90 % w/w
Total Related Substance (% w/w) After 4 weeks/50° C. [2, 20]: 0.63 % w/w
Total Related Substance (% w/w) Initial [2, 20]: 0.15 % w/w
Total Related Substance (% w/w) After 2 weeks/60° C. [2, 21]: 0.93 % w/w
Total Related Substance (% w/w) After 4 weeks/50° C. [2, 21]: 0.57 % w/w
Total Related Substance (% w/w) Initial [2, 21]: 0.16 % w/w
